Assay results reported in patent publication US20260250312A1, “ANTIBACTERIAL COMPOUNDS ELIMINATING DORMANT BACTERIAL CELLS” (UNIVERSITÉ D'AIX-MARSEILLE, priority 2022, published 2026).
Converted amounts (≈) assume the structure as drawn. “And” between values parts separate entries of the source, which are not always exact repeats. Identical values can stand only once. Like-named read-outs stand apart in the source and are kept apart here. Marks after values point to notes of the source that are not given here.

Assays:
[1] = system: Enterococcus faecalis (ATCC29212); experiment: Microdilution MIC assay (CLSI-based), E. faecalis; format: cell-based; conditions: Enterococcus faecalis, ATCC29212, 20 h, 20 hours incubation at 35-37° C., MHB; read-out: Minimum inhibitory concentration E. faecalis ATCC29212
Procedure: (§1) The antibacterial activity of compounds was measured using a standard microdilution assay based on the Clinical and Laboratory Standards Institute (CLSI) guidelines. This method was slightly modified. Indeed, assay volumes were increased to 200 μL to improve reproducibility. The chemical compounds to be tested were in the form of salts for biological testing.
(§2) Bacteria tested: Antibacterial activities of the compounds were tested on Staphylococcus aureus (ATCC25923), Enterococcus faecalis (ATCC29212), Escherichia coli ([…]) and Pseudomonas aeruginosa (ATCC27853).
(§3) Preparation of the Preculture: Mueller Hinton Agar plates were inoculated with frozen biological strain in order to obtain separate colonies and the plates were incubated during 24 h at 35-37° C. 3 colonies of similar aspect were picked out, resuspended in 5 mL of fresh Mueller Hinton broth 1× (MHB) and incubated with shaking (160 rpm) at 35-37° C. overnight.
(§4) 0.1 mL of bacteria in exponential phase were suspended in 9.9 mL of MHB (1:100 dilution). 0.1 mL of the 1:100 dilution were dispensed into the wells of microplates containing 0.1 ml of serial compounds dilutions to yield ca. 5×10^5 CFU/mL. In parallel, the stocks solutions of chemical compounds were first diluted in appropriate solvent to a final concentration of 5 mg/mL. 8 μL were dispended into the first wells of the microplates containing 0.1 ml of sterile broth and a 0.5 cascade dilution was performed in MHB from 0.2 mg/mL. One control was made for each strain tested. […] Tests were performed in triplicate.
(§5) Reading of the Results: After incubation, the filter was replaced with a transparent film, and an optical density reading was then taken in an iEMS plate spectrophotometer at 620 nm. Calculation of the minimum inhibitory concentration (MIC) was performed.

[2] = system: Pseudomonas aeruginosa (ATCC27853); experiment: Microdilution MIC assay (CLSI-based), P. aeruginosa; format: cell-based; conditions: 20 hours incubation at 35-37° C., MHB; for MIC: Pseudomonas aeruginosa, ATCC27853, 20 h, read-out: Minimum inhibitory concentration P. aeruginosa ATCC27853
Procedure: as §1, §2, §3, §4, §5

[3] = system: Staphylococcus aureus (ATCC25923); experiment: Microdilution MIC assay (CLSI-based), S. aureus; format: cell-based; conditions: Staphylococcus aureus, ATCC25923, 20 h, 20 hours incubation at 35-37° C., MHB; read-out: Minimum inhibitory concentration S. aureus ATCC25923
Procedure: as §1, §2, §3, §4, §5

[4] = system: Escherichia coli (ATCC28922); experiment: Microdilution MIC assay (CLSI-based), E. coli; format: cell-based; conditions: 20 hours incubation at 35-37° C., MHB; for MIC: read-out: Minimum inhibitory concentration E. coli ATCC28922
Procedure: as §1, §2, §3, §4, §5

CHO-K1 cells = experiment: WST1 cytotoxicity test; format: cell-based, Chinese hamster; conditions: Cricetulus griseus, CHO-K1, 24 h, WST1, 24 hours at 37° C.; read-out: IC50 CHO
Text: Cytotoxicity: The test WST1 was used to measure the cytotoxic activity of the compounds of the invention. The test WST1 is a colorimetric test allowing to measure the viability and the degree of cell proliferation. It is based on cleavage of the colorless tetrazolium salts WST-1 (4—[3-(4-iodophenyl)-2-(4-nitrophenyl)-2H-5-tetrazolio]-1,3-benzene disulfonate) with mitochondrial dehydrogenases to the yellow-colored formazan derivative, which may be quantified by spectrophotometry at 420-480 nm. The WST1 test was performed on Chinese hamster ovary (CHO) cells. The CHO-K1 cells (ATCC, USA) were kept in culture in McCoy's 5A medium supplemented with 10% fetal calf serum, 2 mM of L-glutamine and a mixture of penicillin-streptomycin (100 U/ml: 10 μg/mL). The culture was incubated at 37° C. under an atmosphere enriched in CO2 (5%), and subcultured every two days. The cells were transferred into 96-well plates (25,000 cells/mL) in whole McCoy's 5A medium, and maintained for 24 hours at 37° C. under a humid atmosphere enriched in CO2 (5%). Increasing concentrations of tested compounds were added to the wells, each compound was tested in replicates and 8 growth controls containing the cells in the medium alone were included in each series of tests. After 24 hours at 37° C. (5% CO2), the culture medium was removed, the cells were rinsed in phosphate buffer (PBS) and 50 μL of PBS containing 10% of reagent WST1 were added to each well. After 20 minutes of incubation at 37° C., the results were read by spectrophotometry at 450 nm. The results are expressed in dose-response relationships, modeled by nonlinear regression analysis using the TableCurve software.
Cytotoxicity: The same WST1 test as described in Example 2 above was used.

[5] = Escherichia coli, ATCC28922, 20 h

Row | SMILES | MIC [1] | MIC [2] | MIC [3] | MIC [4, 5] | IC50 (CHO-K1 cells) | Minimum inhibitory concentration P. aeruginosa ATCC27853 [2] | Minimum inhibitory concentration E. coli ATCC28922 [4] [µg/mL] | MIC [4] [µM]
1 | CC[C@@H](C)[C@H](NC(=O)CC[C@@H](C)[C@H]1CCC2C3C(CC[C@@]21C)[C@@]1(C)CC[C@H](NCCCNCCCN)C[C@H]1C[C@H]3O)C(=O)OC (stereo partly drawn) [Compound S050, methyl (2S,3R)-2-((4R)-4-((3S,5S,7R,10S,13R,17R)-3-((3-((3-aminopropyl)amino)propyl)amino)-7-hydroxy-10,13-dimethylhexadecahydro-1H-cyclopenta[a]phenanthren-17-yl)pentanamido)-3-methylpentanoate] | 25 µM and 16 µg/mL | 50 µM and 32 µg/mL | 3.12 µM and 2 µg/mL | 12.5 µM and 8 µg/mL | 10.5 µM and 6.63 µg/mL | – | – | –
2 | COC(=O)[C@@H](NC(=O)CC[C@@H](C)[C@H]1CC[C@H]2[C@@H]3[C@H](O)C[C@@H]4CC(NCCCNCCCCNCCCN)CC[C@]4(C)[C@H]3CC[C@]12C)C(C)C (mixture of isomers) [Compound S001, methyl ((4R)-4-((3S,5S,7R,10S,13R,17R)-3-((3-((4-((3-aminopropyl)amino)butyl)amino)propyl)amino)-7-hydroxy-10,13-dimethylhexadecahydro-1H-cyclopenta[a]phenanthren-17-yl)pentanoyl)valinate] | 25 µM and 16 µg/mL | 12.5 µM and 8 µg/mL | 3.12 µM and 2 µg/mL | 12.5 µM and 8 µg/mL | 4.41 µM and 3.04 µg/mL | – | – | –
3 | COC(=O)[C@H](NC(=O)CC[C@@H](C)[C@H]1CCC2C3C(CC[C@@]21C)[C@@]1(C)CC[C@H](NCCCN)C[C@H]1C[C@H]3O)C(C)C (stereo partly drawn) [Compound S018, methyl ((4R)-4-((3S,5S,7R,10S,13R,17R)-3-((3-aminopropyl)amino)-7-hydroxy-10,13-dimethylhexadecahydro-1H-cyclopenta[a]phenanthren-17-yl)pentanoyl)-D-valinate] | 100 µM and 64 µg/mL | 200 µM and 128 µg/mL | 50 µM and 32 µg/mL | 200 µM and 128 µg/mL | 10.9 µM and 6.1 µg/mL | – | – | –
4 | COC(=O)CNC(=O)CC[C@@H](C)[C@H]1CCC2C3C(CC[C@@]21C)[C@@]1(C)CC[C@H](NCCCNCCCCNCCCN)C[C@H]1C[C@H]3O (stereo partly drawn) [Compound S004, methyl ((4R)-4-((3S,5S,7R,10S,13R,17R)-3-((3-((4-((3-aminopropyl)amino)butyl)amino)propyl)amino)-7-hydroxy-10,13-dimethylhexadecahydro-1H-cyclopenta[a]phenanthren-17-yl)pentanoyl)glycinate] | 50 µM and 32 µg/mL | – | 6.25 µM and 4 µg/mL | – | 51.7 µM and 33.5 µg/mL | >200* μM and >128* μg/mL | 64 (≈ 98.8 µM) | 100 (≈ 64.8 µg/mL)
5 | COC(=O)[C@@H](NC(=O)CC[C@@H](C)[C@H]1CC[C@H]2[C@@H]3[C@H](O)C[C@@H]4CC(NCCCN5CCN(CCCN)CC5)CC[C@]4(C)[C@H]3CC[C@]12C)C(C)C (mixture of isomers) [Compound S002, methyl ((4R)-4-((3S,5S,7R,10S,13R,17R)-3-((3-(4-(3-aminopropyl)piperazin-1-yl)propyl)amino)-7-hydroxy-10,13-dimethylhexadecahydro-1H-cyclopenta[a]phenanthren-17-yl)pentanoyl)valinate] | 50 µM and 32 µg/mL | 100 µM and 64 µg/mL | 25 µM and 16 µg/mL | 100 µM and 64 µg/mL | 93.3 µM and 64.2 µg/mL | – | – | –
6 | COC(=O)[C@H]1CCCN1C(=O)CC[C@@H](C)[C@H]1CCC2C3C(CC[C@@]21C)[C@@]1(C)CC[C@H](NCCCNCCCN)C[C@H]1C[C@H]3O (stereo partly drawn) [Compound S045, methyl ((4R)-4-((3S,5S,7R,10S,13R,17R)-3-((3-((3-aminopropyl)amino)propyl)amino)-7-hydroxy-10,13-dimethylhexadecahydro-1H-cyclopenta[a]phenanthren-17-yl)pentanoyl)-D-prolinate] | 4 µg/mL and 6.25 µM | 16 µg/mL and 25 µM | 2 µg/mL and 3.13 µM | 4 µg/mL and 6.25 µM | 7.77 µg/mL and 12.6 µM | – | – | –
7 | COC(=O)[C@H](Cc1ccccc1)NC(=O)CC[C@@H](C)[C@H]1CCC2C3C(CC[C@@]21C)[C@@]1(C)CC[C@H](NCCCN)C[C@H]1C[C@H]3O (stereo partly drawn) [Compound S016, methyl ((4R)-4-((3S,5S,7R,10S,13R,17R)-3-((3-aminopropyl)amino)-7-hydroxy-10,13-dimethylhexadecahydro-1H-cyclopenta[a]phenanthren-17-yl)pentanoyl)-L-phenylalaninate] | 25 µM and 16 µg/mL | 50 µM and 32 µg/mL | 12.5 µM and 8 µg/mL | 25 µM and 16 µg/mL | 66 µM and 40.2 µg/mL | – | – | –
8 | COC(=O)CNC(=O)CC[C@@H](C)[C@H]1CCC2C3C(CC[C@@]21C)[C@@]1(C)CC[C@H](NCCCN2CCN(CCCN)CC2)C[C@H]1C[C@H]3O (stereo partly drawn) [Compound S006, methyl ((4R)-4-((3S,5S,7R,10S,13R,17R)-3-((3-(4-(3-aminopropyl)piperazin-1-yl)propyl)amino)-7-hydroxy-10,13-dimethylhexadecahydro-1H-cyclopenta[a]phenanthren-17-yl)pentanoyl)glycinate] | > 200 µM and > 128 µg/mL | > 200 µM and > 128 µg/mL | 25 µM and 16 µg/mL | > 200 µM and > 128 µg/mL | 73.6 µM and 47.7 µg/mL | – | – | –
9 | COC(=O)[C@H](NC(=O)CC[C@@H](C)[C@H]1CCC2C3C(C[C@H](O)[C@@]21C)[C@@]1(C)CC[C@H](NCCCNCCCCNCCCN)C[C@H]1C[C@H]3O)C(C)C (stereo partly drawn) [Compound S058, methyl ((4R)-4-((3S,5S,7R,10S,12S,13R,17R)-3-((3-((4-((3-aminopropyl)amino)butyl)amino)propyl)amino)-7,12-dihydroxy-10,13-dimethylhexadecahydro-1H-cyclopenta[a]phenanthren-17-yl)pentanoyl)-D-valinate] | 100 µM and 64 µg/mL | 50 µM and 32 µg/mL | 12.5 µM and 8 µg/mL | 100 µM and 64 µg/mL | 6.55 µM and 4.63 µg/mL | – | – | –
10 | COC(=O)[C@@H](Cc1ccc(O)cc1)NC(=O)CC[C@@H](C)[C@H]1CCC2C3C(C[C@H](O)[C@@]21C)[C@@]1(C)CC[C@H](NCCCNCCCCNCCCN)C[C@H]1C[C@H]3O (stereo partly drawn) [Compound S061, methyl ((4R)-4-((3S,5S,7R,10S,12S,13R,17R)-3-((3-((4-((3-aminopropyl)amino)butyl)amino)propyl)amino)-7,12-dihydroxy-10,13-dimethylhexadecahydro-1H-cyclopenta[a]phenanthren-17-yl)pentanoyl)-D-tyrosinate] | 100 µM and 64 µg/mL | 100 µM and 64 µg/mL | 6.25 µM and 4 µg/mL | 100 µM and 64 µg/mL | 6.85 µM and 5.17 µg/mL | – | – | –
